Laboratory results as given in the supplement of paper PMC10307832.

Experiments:
Experiment in all cases: relative viability (nuclei count vs DMSO), 5 days (fraction); higher = more cells survive
[1] = tested on: NCI-H1792
Outline: (§1)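 For relative viability, nuclei counts in treated wells were divided by those in vehicle wells. Lung cancer cell lines had been pin-tool dosed in 1536-well plates the day after seeding and cultured for 5 days, then fixed and stained in one step (final 0.05% Triton X-100, 1% formaldehyde, 1 ug/ml Hoechst) and imaged at 4×. Doses were one drug alone or a fixed anchor-drug dose plus five library-drug doses (not always all listed) in √10 steps, and values are duplicate-plate medians.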

[2] = tested on: NCI-H1755
Outline: as §1

[3] = tested on: NCI-H2126
Outline: as §1

[4] = tested on: HCC-15
Outline: as §1

[5] = tested on: NCI-H358
Outline: as §1

[6] = tested on: LXF-289
Outline: as §1

[7] = tested on: NCI-H647
Outline: as §1

[8] = tested on: LC-2-ad
Outline: as §1

[9] = tested on: A-427
Outline: as §1

[10] = tested on: SK-LU-1
Outline: as §1

[11] = tested on: NCI-H2347
Outline: as §1

Compound: O=c1cc(-c2cccc3c2Sc2ccccc2S3)oc(N2CCOCC2)c1 + O=C(c1cc(Cc2n[nH]c(=O)c3ccccc23)ccc1F)N1CCN(C(=O)C2CC2)CC1 [Olaparib] (partner 8 µM)
- relative viability ([1]; first compound 0.08 µM): 0.384
- relative viability ([1]; first compound 0.253 µM): 0.352
- relative viability ([1]; first compound 0.8 µM): 0.341
- relative viability ([1]; first compound 2.53 µM): 0.321
- relative viability ([1]; first compound 8 µM): 0.286
- relative viability ([2]; first compound 0.08 µM): 0.843
- relative viability ([2]; first compound 0.253 µM): 0.998
- relative viability ([2]; first compound 0.8 µM): 0.846
- relative viability ([2]; first compound 2.53 µM): 0.884
- relative viability ([2]; first compound 8 µM): 0.91
- relative viability ([3]; first compound 0.08 µM): 1.06
- relative viability ([3]; first compound 0.253 µM): 0.991
- relative viability ([3]; first compound 0.8 µM): 1.01
- relative viability ([3]; first compound 2.53 µM): 0.9
- relative viability ([3]; first compound 8 µM): 0.91
- relative viability ([4]; first compound 0.08 µM): 0.756
- relative viability ([4]; first compound 0.253 µM): 0.772
- relative viability ([4]; first compound 0.8 µM): 0.707
- relative viability ([4]; first compound 2.53 µM): 0.654
- relative viability ([4]; first compound 8 µM): 0.485
- relative viability ([5]; first compound 0.08 µM): 0.636
- relative viability ([5]; first compound 0.253 µM): 0.676
- relative viability ([5]; first compound 0.8 µM): 0.589
- relative viability ([5]; first compound 2.53 µM): 0.64
- relative viability ([5]; first compound 8 µM): 0.719
- relative viability ([6]; first compound 0.08 µM): 1.17
- relative viability ([6]; first compound 0.253 µM): 1.36
- relative viability ([6]; first compound 0.8 µM): 1.18
- relative viability ([6]; first compound 2.53 µM): 1.11
- relative viability ([6]; first compound 8 µM): 1.21
- relative viability ([7]; first compound 0.08 µM): 0.642
- relative viability ([7]; first compound 0.253 µM): 0.851
- relative viability ([7]; first compound 0.8 µM): 0.596
- relative viability ([7]; first compound 2.53 µM): 0.452
- relative viability ([7]; first compound 8 µM): 0.272
- relative viability ([8]; first compound 0.08 µM): 0.791
- relative viability ([8]; first compound 0.253 µM): 0.83
- relative viability ([8]; first compound 0.8 µM): 0.713
- relative viability ([8]; first compound 2.53 µM): 0.649
- relative viability ([8]; first compound 8 µM): 0.64
- relative viability ([9]; first compound 0.08 µM): 0.7
- relative viability ([9]; first compound 0.253 µM): 0.776
- relative viability ([9]; first compound 0.8 µM): 0.637
- relative viability ([9]; first compound 2.53 µM): 0.684
- relative viability ([9]; first compound 8 µM): 0.777
- relative viability ([10]; first compound 0.08 µM): 0.582
- relative viability ([10]; first compound 0.253 µM): 0.713
- relative viability ([10]; first compound 0.8 µM): 0.524
- relative viability ([10]; first compound 2.53 µM): 0.503
- relative viability ([10]; first compound 8 µM): 0.463
- relative viability ([11]; first compound 0.08 µM): 0.53
- relative viability ([11]; first compound 0.253 µM): 0.561
- relative viability ([11]; first compound 0.8 µM): 0.591
- relative viability ([11]; first compound 2.53 µM): 0.585
- relative viability ([11]; first compound 8 µM): 0.638
